Consider nine compounds from article PMC3443097, “Evolution of Bombesin Conjugates for Targeted PET Imaging of Tumors” (PLoS ONE, 2012).

One series has as its target T1, human GRP receptor (Homo sapiens, UniProt P30550).
T1 construct: in vitro autoradiography of sections of human prostate cancer tissue overexpressing GRP receptors; from tissue; host or cells: human prostate cancer tissue sections (patient samples, Institute of Pathology, University of Berne)
Briefly: Competitive binding vs [^125I-Tyr^4] BN, autoradiography of human prostate cancer tissue sections. Conditions: displacement of [^125I-Tyr^4] BN, ± SD, number of independent studies in brackets. The method, then:
(§1) Using [^125I-Tyr^4] BN as a GRP receptor preferring ligand, the IC50 values of the ^natCu/^natIn-labeled peptides were measured by in vitro autoradiography of sections of human prostate cancer tissue overexpressing GRP receptors or mouse pancreas tissue expressing mouse GRP receptors. The prostate cancer tissues originated from samples investigated previously or collected prospectively at the Institute of Pathology of the University of Berne in accordance with international ethical guidelines, including informed written consent and approval by the institutional review board. The binding affinity profile of [Cu^II]-BZH7 for three bombesin receptor subtypes was determined by using [^125I-D-Tyr^6, βAla^11, Phe^13, Nle^14] BN(6–14) as an universal radioligand. The procedures were described in detail previously.
(§2) Competitive binding assays were performed with human GRP receptor-positive cancerous tissue and mouse pancreas tissue (expressing mouse GRP receptor) using [^125I-Tyr^4]bombesin as radioligand. Table 2 summarizes the binding affinities of the metallopeptides to GRP receptors of mouse and human origin.

The target of a further series is T2, mouse GRP receptor (Mus musculus, UniProt P21729).
T2 construct: mouse pancreas tissue (expressing mouse GRP receptor); from tissue; host or cells: mouse pancreas tissue sections
T2 sequence (P21729 whole entry): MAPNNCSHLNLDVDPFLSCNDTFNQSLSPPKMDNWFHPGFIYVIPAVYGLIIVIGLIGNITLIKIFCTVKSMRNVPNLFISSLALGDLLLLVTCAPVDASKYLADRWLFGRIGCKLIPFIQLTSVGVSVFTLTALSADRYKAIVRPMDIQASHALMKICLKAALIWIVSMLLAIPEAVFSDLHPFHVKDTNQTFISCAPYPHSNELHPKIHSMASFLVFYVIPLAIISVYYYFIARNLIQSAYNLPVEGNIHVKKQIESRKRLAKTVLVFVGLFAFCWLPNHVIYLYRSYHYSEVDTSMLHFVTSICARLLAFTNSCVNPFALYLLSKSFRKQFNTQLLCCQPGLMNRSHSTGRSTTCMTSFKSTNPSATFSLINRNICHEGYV
Briefly: Competitive binding vs [^125I-Tyr^4] BN, autoradiography of mouse pancreas tissue sections. Conditions: displacement of [^125I-Tyr^4] BN, ± SD, number of independent studies in brackets. As to the method: as §1, §2

Series [1] relates to BNRS-3. The note with it: read-out: affinity to BNRS-3; cited from earlier work.
For series [2], the system named is NMB-R. Conditions: read-out: affinity to NMB-R; cited from earlier work.
In series [3] the test system is GRP-R. Conditions: read-out: affinity to GRP-R; cited from earlier work.
Another series deals with PC-3 cells. In words: Composition of radioactivity externalized from PC-3 cells (metabolites). It is filed as cell-based, human. The method, then:
To identify the composition of the externalized peptides, [^111In]-BZH4 (^111In-DOTA-GABA-D-Tyr-Gln-Trp-Ala-Val-βAla-His-Leu-Nle-NH2) was used as a surrogate peptide with high specific activity, required for metabolic studies. Upon 2 h of internalization and acid wash, the externalized radioactivity after 2 h incubation already consisted of approximately 84% metabolites (^111In-DOTA: 14%; ^111In-DOTA-GABA-D-Tyr-Gln: main peak, 64%; ^111In-DOTA-GABA-D-Tyr-Gln-Trp-Ala-Val-βAla: 6%) and 16% intact peptide.

Series [4] has as its target T3, GRP-R (Homo sapiens, UniProt P30550).
T3 construct: from tissue
Briefly: BN receptor subtype profile with universal radioligand [^125I-D-Tyr^6, βAla^11, Phe^13, Nle^14] BN(6–14), human cancerous tissues. The note with it: human cancerous tissue, read-out: binding affinity to GRP-R. As to the method:
as §1
(§3) The most promising peptide, Cu-BZH7, was also studied with respect to BN receptor subtype profiles using human cancerous tissues shown to express predominantly a single bombesin receptor subtype.

Series [5] deals with T4, NMB-R (Homo sapiens, UniProt P28336).
T4 construct: from tissue
T4 sequence (P28336 whole entry): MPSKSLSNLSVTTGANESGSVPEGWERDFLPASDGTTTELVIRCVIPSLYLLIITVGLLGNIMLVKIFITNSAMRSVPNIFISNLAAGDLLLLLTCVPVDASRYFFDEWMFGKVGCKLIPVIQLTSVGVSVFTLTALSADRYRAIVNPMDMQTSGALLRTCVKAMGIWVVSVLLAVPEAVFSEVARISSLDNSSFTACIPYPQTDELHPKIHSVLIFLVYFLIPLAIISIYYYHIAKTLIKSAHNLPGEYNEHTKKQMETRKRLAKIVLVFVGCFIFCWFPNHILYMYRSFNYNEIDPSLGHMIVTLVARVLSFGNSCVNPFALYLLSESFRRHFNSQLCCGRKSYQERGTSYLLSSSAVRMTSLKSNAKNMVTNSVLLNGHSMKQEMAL
The description is as above. The note with it: human cancerous tissue, read-out: binding affinity to NMB-R. As to the method: as §1, §3

Series [6] concerns the target T5, BNRS-3 (Homo sapiens, UniProt P32247).
T5 construct: from tissue
T5 sequence (P32247 1-399): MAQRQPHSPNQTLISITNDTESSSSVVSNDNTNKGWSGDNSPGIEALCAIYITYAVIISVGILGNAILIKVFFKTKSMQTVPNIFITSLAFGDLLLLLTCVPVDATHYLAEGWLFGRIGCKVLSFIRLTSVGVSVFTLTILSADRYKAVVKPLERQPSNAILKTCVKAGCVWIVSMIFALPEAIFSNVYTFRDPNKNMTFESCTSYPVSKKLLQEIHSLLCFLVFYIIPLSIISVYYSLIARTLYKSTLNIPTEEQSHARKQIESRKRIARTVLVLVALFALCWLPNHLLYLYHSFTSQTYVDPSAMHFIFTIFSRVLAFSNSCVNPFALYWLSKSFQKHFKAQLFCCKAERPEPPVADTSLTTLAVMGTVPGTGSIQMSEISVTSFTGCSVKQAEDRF
Described as above. Conditions: human cancerous tissue, read-out: binding affinity to BNRS-3. The method, then: as §1, §3

[7] abbreviates: 2 h internalization, acid wash, 2 h incubation.

Square brackets hold non-standard residues; d marks the D form. Peptide text beside a SMILES is read from it. * marks the point of attachment. CPTA = 4-(1,4,8,11-tetraazacyclotetradec-1-yl)-methyl benzoic acid chelator, O=C(c1ccc(CN2CCCNCCNCCCNCC2)cc1)*; DOTA = O=C(O)CN1CCN(CC(=O)O)CCN(CC(=O)*)CCN(CC(=O)O)CC1; Nle = CCCC[C@H](N)C(=O)O; GABA = NCCCC(=O)O; βAla = NCCC(=O)O

T1 sequence (P30550 whole entry): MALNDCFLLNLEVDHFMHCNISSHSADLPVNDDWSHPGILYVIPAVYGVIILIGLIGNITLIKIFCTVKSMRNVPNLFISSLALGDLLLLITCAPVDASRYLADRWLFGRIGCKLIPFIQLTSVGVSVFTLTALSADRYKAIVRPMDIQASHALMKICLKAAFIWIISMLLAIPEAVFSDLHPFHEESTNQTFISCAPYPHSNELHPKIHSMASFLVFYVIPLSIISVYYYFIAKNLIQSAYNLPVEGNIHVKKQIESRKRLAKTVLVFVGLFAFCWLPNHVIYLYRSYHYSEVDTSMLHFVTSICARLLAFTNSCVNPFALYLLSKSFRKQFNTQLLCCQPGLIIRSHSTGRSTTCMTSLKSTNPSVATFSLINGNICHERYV
T3 sequence (P30550 whole entry): as above

In the case of “Cu^II-CPTA-[Gly^6, βAla^11] BN(6–14) [[Cu^II]-BZH8]”, the IC50 is 1.8 ± 0.6 nM at human GRP receptor and 0.8 ± 0.2 nM at mouse GRP receptor.

For the compound “Cu^II-CPTA-[D-Tyr^6, βAla^11] BN(6–14) ({CPTA}-[dY]QWAV[βAla]HLM-NH2; also: Cu(II) complex of CPTA) [[Cu^II]-BZH6]”, the IC50 in the series with human GRP receptor came out at 1 ± 0.2 nM; in the series with mouse GRP receptor, 0.8 ± 0.2 nM.

Turning to “In^III-DOTA-GABA-[D-Tyr^6, βAla^11, Nle^14] BN(6–14) [[In^III]-BZH4]”, the IC50 on human GRP receptor was found to be 41.5 ± 2.5 nM; at mouse GRP receptor, 0.8 ± 0.4 nM.

Consider `CCCC[C@H](NC(=O)[C@H](CC(C)C)NC(=O)[C@H](Cc1c[nH]cn1)NC(=O)CCNC(=O)[C@@H](NC(=O)[C@H](C)NC(=O)[C@H](Cc1c[nH]c2ccccc12)NC(=O)[C@H](CCC(N)=O)NC(=O)[C@@H](Cc1ccc(O)cc1)NC(=O)CCCNC(=O)CN1CCN(CC(=O)O)CCN(CC(=O)O)CCN(CC(=O)O)CC1)C(C)C)C(N)=O` [[Cu^II]-BZH4, Cu^II-DOTA-GABA-[D-Tyr^6, βAla^11, Nle^14] BN(6–14)] ({DOTA-GABA}-[dY]QWAV[βAla]HL[Nle]-NH2), for which the values for the IC50 on human GRP receptor and on mouse GRP receptor were 26.3 ± 3.5 nM and 1.1 ± 0.3 nM, respectively.

In the case of “DOTA-PEG4-BN(7–14) [[^natGa/^natLu]-DOTA-PESIN]”, the IC50 with BNRS-3 [1] was > 1000 nM; in the series on NMB-R [2], 12.5 nM; in the series on GRP-R [3], 10 nM.

In the case of “Cu^II-CPTA -[D-Tyr^6, βAla^11, Nle^14] BN(6–14) [[Cu^II]-BZH5]”, the IC50 on human GRP receptor is 3.2 ± 0.5 nM; at mouse GRP receptor it was 0.6 ± 0.2 nM.

On to `CCCC[C@H](NC(=O)[C@H](CC(C)C)NC(=O)[C@H](Cc1c[nH]cn1)NC(=O)CCNC(=O)[C@@H](NC(=O)[C@H](C)NC(=O)[C@H](Cc1c[nH]c2ccccc12)NC(=O)[C@H](CCC(N)=O)NC(=O)[C@@H](Cc1ccc(O)cc1)NC(=O)CCCNC(=O)CN1CCN(CC(=O)O)CCN(CC(=O)O)CCN(CC(=O)O)CC1)C(C)C)C(N)=O` [[^111In]-BZH4, ^111In-DOTA-GABA-D-Tyr-Gln-Trp-Ala-Val-βAla-His-Leu-Nle-NH2, metal not drawn] ({DOTA-GABA}-[dY]QWAV[βAla]HL[Nle]-NH2), for which, in the series with PC-3 cells, the “externalized radioactivity: ^111In-DOTA” value was 14% and the “externalized radioactivity: metabolites (total)” value is given as “approximately 84%”. Besides, in the series on PC-3 cells (setting [7]), the “externalized radioactivity: ^111In-DOTA-GABA-D-Tyr-Gln (main peak)” value is 64% and the “externalized radioactivity: ^111In-DOTA-GABA-D-Tyr-Gln-Trp-Ala-Val-βAla” value was determined as 6%.

With `CSCC[C@H](NC(=O)[C@H](CC(C)C)NC(=O)[C@H](Cc1c[nH]cn1)NC(=O)CCNC(=O)[C@@H](NC(=O)[C@H](C)NC(=O)[C@H](Cc1c[nH]c2ccccc12)NC(=O)[C@H](CCC(N)=O)NC(=O)c1ccc(CN2CCCNCCNCCCNCC2)cc1)C(C)C)C(N)=O` [[Cu^II]-BZH7, Cu^II-CPTA-[βAla^11] BN(7–14)], the IC50 at GRP-R [4] is 0.3 ± 0.07 nM; at NMB-R [5], 0.27 ± 0.16 nM; at BNRS-3 [6] it was 1.4 ± 0.6 nM.

As to [(N4-Bzdig)^0] BN (7–14), the IC50 with BNRS-3 [1] was 37 nM; in the series on NMB-R [2], 0.65 nM; with GRP-R [3], 0.9 nM.
